Reference: patent publication US4571408A, “α,β-Dihydropolyprenyl derivatives for treating hepatitis” (Eisai Co., Ltd., priority 1980, dated 1986)

Key:
[1] = system: liver disease (hepatitis) induced by D-galactosamine; experiment: Activity against liver disease (hepatitis) induced by D-galactosamine; type: in vivo, rats (SD strain); settings: test compound orally 400 mg./kg. each time (0, 4, 10, 24 h); D-galactosamine hydrochloride s.c. 200 mg./kg. (4, 10, 24 h); blood collection at 28 h; nine rats per group
Description: Activity against liver disease (hepatitis) induced by D-galactosamine
D-Galactosamine hydrochloride and the above-listed compound were administered (1) subcutaneously in the dosage of 200 mg./kg. each time and (2) orally in the dosage of 400 mg./kg. each time, respectively, to rats (SD strain, weight: approximately 250 g.) according to the schedule described hereinafter. After completion of the administrations, the blood was collected from the rats and there were measured the GOT value, GPT value and alkali phosphotase value, all of which are indicative of the degree of liver disease.
Each test compound was administered in the form of a suspension thereof in a 5% aqueous gum arabic solution. The D-galactosamine hydrochloride was administered in the form of an aqueous solution thereof in distilled water adjusted to pH 7 by addition of potassium hydroxide.
There were provided the test compound groups (nine rats per each group) in which the rats were administered with the test compound and with D-galactosamine hydrochloride; a control group (fourteen rats) in which the rats were administered with a plain 5% aqueous gum arabic solution free of the test compound and with D-galactosamine hydrochloride; and a normal group (eight rats) in which the rats were not administered with either the test compound or D-galactosamine hydrochloride.
4 test compound and D-galactosamine
10 test compound and D-galactosamine
24 test compound and D-galactosamine

[2] = system: rats (Wistar strain); experiment: Toxicity (oral administration to rats); type: in vivo; settings: orally, 4,000 mg./kg., ten rats (Wistar strain), suspended in 5% aqueous gum arabic solution
Description: Each of the above-listed compounds, A, B, C and D was suspended in a 5% aqueous gum arabic solution and then was administered orally to ten rats (Wistar strain) in the dosage of 4,000 mg./kg.

| SMILES | Alkali phosphatase value [1] [KA - u] | GOT value [1] [carmen unit] | GPT value [1] [carmen unit] | Deaths of the rats [2] |
| --- | --- | --- | --- | --- |
| CC(C)=CCC/C(C)=C/CC/C(C)=C/CCC(C)CC(=O)O (stereo not shown) [Compound A, (E, E)-3,7,11,15-tetramethyl-6,10,14-hexadecatrienoic acid] | 56.2 | 312.4 | 208.3 | No deaths of the rats were observed |
| CCOC(=O)CC(C)CC/C=C(\C)CC/C=C(\C)CCC=C(C)C (stereo not shown) [Compound B, ethyl (E, E)-3,7,11,15-tetramethyl-6,10,14-hexadecatrienoate] | 55.8 | 307.1 | 199.7 | No deaths of the rats were observed |
| CC(=O)OCCC(C)CC/C=C(\C)CC/C=C(\C)CCC=C(C)C (stereo not shown) [Compound D, (E, E)-3,7,11,15-tetramethyl-6,10,14-hexadecatrienyl acetate] | 53.5 | 315.3 | 178.7 | No deaths of the rats were observed |
| CC(C)=CCC/C(C)=C/CC/C(C)=C/CCC(C)CCO (stereo not shown) [Compound C, (E, E)-3,7,11,15-tetramethyl-6,10,14-hexadecatrien-1-ol] | 54.2 | 337.7 | 185.6 | No deaths of the rats were observed |
